The source of these data is patent publication US20130225839A1, “PREPARATION METHOD OF FOSAMPRENAVIR DERIVATIVES AND RELEVANT INTERMEDIATE THEREOF” (ZHEJIANG JIUHOU PHARMA SCIENCE & TECHNOLOGY CO., LTD., priority 2010, published 2013).

For data set [1] the following is noted: cited from earlier work.
The nature of data set [2]: solubility in water or ethanol. It is filed as physicochemical.

≈ marks a conversion by molar mass, not a printed value.

As to `CC(C)CN(C[C@@H](O)[C@H](Cc1ccccc1)NC(=O)O[C@H]1CCOC1)S(=O)(=O)c1ccc(N)cc1` [APV, amprenavir], the “solubility in water at 25° C.” value in data set [1] was 40 µg/mL (≈ 79.1 µM).
Regarding `CC(C)CN(C[C@@H](OP(=O)([O-])[O-])[C@H](Cc1ccccc1)NC(=O)O[C@H]1CCOC1)S(=O)(=O)c1ccc([N+](=O)[O-])cc1.[Na+].[Na+]` [sodium (3S)4etrahydrofuran-3-yl(1S,2R)-3-[(4-nitrophenyl)sulfonyl](isobutyl)amino-1-benzyl-2-(phosphonooxy)propyl-carbamate], the solubility in ethanol entry in data set [2] (ethanol) is “soluble”. Besides, the solubility in water result in data set [2] (water) is recorded as “soluble”.
